Reference: patent publication US7402611B1, “Use of amino acids for making medicines for treating to insulin-resistance” (Innodia Inc., priority 1999, dated 2008)
Entries after “also recorded” stand apart in the source; their conditions may differ.

What was measured:
insulin receptor (IR) = experiment: Phosphorylation of the insulin receptor in the liver of normal rats; type: in vivo; settings: normal rat liver, single injection 200 μg/kg I.P.; comparable to insulin
IRS-1 = experiment: Phosphorylation of IRS-1 in the liver of normal rats; type: in vivo; settings: normal rat liver, single injection 200 μg/kg I.P.; comparable to insulin
PI 3-kinase [1] = experiment: PI 3-kinase activity of the liver (anti-IRS-1 immunoprecipitates), normal rats; type: in vivo, rat; settings: normal Wistar rats, i.p., insulin 100 U/kg, 4-OH-Ile 18 mg/kg, 15 min after injection; p<0.05
Description: (§1) The PI 3-kinase activity was measured on immunoprecipitates carried out with the anti-IRS-1 antibody. This made it possible to determine the enzymatic activity associated with the action of insulin and to compare it to the action induced by 4-OH-Ile. Normal male Wistar rats (IFFA CREDO strain, France) received, via intraperitoneal injection, either ordinary insulin on its own (100 U/kg) or 4-OH-Ile on its own (18 mg/kg), or insulin combined with 4-OH-Ile in the same doses. The control rats received sodium chloride at 9‰ via intraperitoneal route. Fifteen minutes after the injection, the animals were sacrificed and the peripheral tissues (liver, muscle) were immediately removed and frozen in liquid nitrogen. […] After solubilisation, the supernatants are immunoprecipitated with anti-IRS-1 and the PI 3-kinase activity is measured in the immunoprecipitate. […] The product of the reaction is subjected to thin layer chromatography (TLC plate) and the levels of phosphorylation of PI are measured by a STORM phospho-imager (Molecular Dynamics). The activity is expressed in arbitrary units given by the apparatus (conversion of the radioactivity to luminescence by means of a laser beam).

insulin receptor = experiment: Bonding of insulin on its receptor in hepatic LMH cell lines; type: binding; settings: LMH cells (chicken hepatocarcinoma), competition with insulin
Excerpt: FIG. 4, the bonding of insulin on its receptor in hepatic LMH cell lines, In FIG. 4 the comparative results concerning the bonding of isoleucine and 4-OH-Ile are given. The LMH cells used in these trials are from chicken hepatocarcinoma (Kawaguchi T. et al., Cancer Res., 47, 4460, 1987).

PI 3-kinase [2] = experiment: PI 3-kinase activity of muscle (anti-IRS-1 immunoprecipitates), normal rats; type: in vivo, rat; settings: normal Wistar rats, i.p., insulin 100 U/kg, 4-OH-Ile 18 mg/kg, 15 min after injection
Description: as §1

[3] = Basal insulinemia and glycemia during chronic administration in type 2 diabetic rats; type: in vivo, rat
Description: The beneficial effect of 4-hydroxyisoleucine against relative hyperinsulinemia has been researched in vivo during chronic administration (for one month) of plant amino acid (25 mg/kg/day, by intraperitoneal route) on rats made non insulin dependant diabetic (type 2 diabetes) by joint injections of nicotinamide and streptozotocin (Masiello et al., Diabetes, 47, 224, 1998). Regular blood samples are taken from the caudal vein of the rats made it possible to evaluate the level of plasmatic insulin using a radio-immunological method (Herbert et al., J. Clin. Endocr., 25. 1375, 1965), 15 hours after injection of the product which took place at 5.30 pm. In these same samples, the plasmatic glucose level was measured using an enzymatic method (Trinder P., J. Clin. Pathol. 22, 158, 1969).

PI 3-kinase [4] = experiment: PI 3-kinase activity of the liver in type 2 diabetic rats; type: in vivo, rat; settings: liver of rats with type 2 diabetes; p<0.05 for 4-OH-Ile
Description: (§2) For the determination of the PI 3-kinase activity, the tissues are ground in a buffer containing protease and phosphatase inhibitors as well as a solubilising agent (Triton), as described by Taouis et al., J. Biol. Chem., 269, 14912, 1994. After solubilisation, the supernatants are immunoprecipitated with anti-IRS-1 and the PI 3-kinase activity is measured in the immunoprecipitate. In fact, the reaction is initiated by the addition of an artificial substrate of the enzyme: phosphatidylinositol (PI) and (^33P) gamma ATP. The product of the reaction is subjected to thin layer chromatography (TLC plate) and the levels of phosphorylation of PI are measured by a STORM phospho-imager (Molecular Dynamics). The activity is expressed in arbitrary units given by the apparatus (conversion of the radioactivity to luminescence by means of a laser beam). Comparison of the Effects of Insulin and Those of 4-OH-Ile on the PI 3-Kinase Activity of the Muscle and the Liver Removed from Rats with Type 2 Diabetes (Masiello et al., Diabetes 47, 224, 1998)

PI 3-kinase [5] = experiment: PI 3-kinase activity of the muscle in type 2 diabetic rats; type: in vivo, rat; settings: muscle of rats with type 2 diabetes; p<0.01 for 4-OH-Ile
Description: as §2

PI 3-kinase [6] = experiment: Basal PI 3-kinase activity of the liver of obese Zucker rats (fa/fa) after chronic administration; type: in vivo, rat; settings: 50 mg/kg i.p. for 4 weeks, sacrificed 17 hours after last administration
Description: as §2, with “During chronic administration for 4 weeks of 4-OH-Ile (50 mg/kg by intraperitoneal route) in obese Zucker rats (fa/fa), the PI 3-kinase activity” for “Comparison”, “liver was measured at” for “Effects of Insulin and Those of 4-OH-Ile on”, “end” for “PI 3-Kinase Activity”, “treatment.” for “Muscle and the Liver Removed from Rats with Type 2 Diabetes (Masiello et al., Diabetes 47, 224, 1998)”

[7] = tested on: PI 3-kinase associated with the insulin receptor; experiment: PI 3-kinase activity associated with the insulin receptor in the liver of a normal rat; type: in vivo; settings: 18 mg/kg I.P., p<0.05
Description: as §2, with “beam). The PI 3-kinase activities” for “beam). Comparison”, “the PDGF receptor and” for “the Effects”, “of the insulin receptor in the presence or the absence” for “of Insulin and Those”, “4-OH-Ile (18 mg/kg I.P.) were compared following” for “4-OH-Ile on”, “the protocol already described.” for “the PI 3-Kinase Activity of the Muscle and the Liver Removed from Rats with Type 2 Diabetes (Masiello et al., Diabetes 47, 224, 1998)”

[8] = tested on: phosphatase activity associated with IRS-1; experiment: Phosphatase activity associated with IRS-1 in the liver of a normal rat; type: biochemical; settings: 200 μmol/1, p<0.05
Description: The phosphatase activity was measured on the immunoprecipitates carried out with the anti-IRS-1 antibody and insulin anti-receptor. The solubilisation protocol is the same as that for PI 3-kinase following the methodology described by Taouis et al. (J. Biol. Chem., 269, 14912, 1994). After immunoprecipitation, the phosphatase activity was measured according to the method described by Chen. et al. (J. Biol. Chem., 272, 8026, 1997). With the aim of better locating the action site of the 4-OH-Ile, its impact on phosphatase activity was studied. The phosphatase activity associated with IRS-1 was measured.

Water solubility = type: physicochemical

## CC(O)C(C)C(N)C(=O)O (stereo not drawn) [4-OH-Ile, 4-hydroxyisoleucine]
Insulin receptor (IR)
  activation (phosphorylation) of the insulin receptor (IR): induces the activation
IRS-1
  activation (phosphorylation) of IRS-1: induces the activation
PI 3-kinase [1]
  hepatic PI 3-kinase activity: significantly stimulate
Insulin receptor
  bonding to the insulin membrane receptor of the hepatocyte: has no bond with this receptor; also recorded: does not recognise the insulin receptor
PI 3-kinase [2]
  PI 3-kinase activity of muscle: has a comparable effect
[3]; type 2 diabetic rats (nicotinamide/streptozotocin), 25 mg/kg/day i.p. for one month, 15 hours after injection
  insulinemia (plasmatic insulin): significantly lowering
[3]; type 2 diabetic rats, 25 mg/kg/day i.p., at the end of the treatment
  glycemia: slight reduction
[3]; type 2 diabetic rats, after cessation of 25 mg/kg/day i.p. treatment
  plasmatic insulin after cessation of the treatment: again rises to regain values close to those observed before the treatment
PI 3-kinase [4]
  hepatic PI 3-kinase activity: the same effect as insulin with the same intensity; also recorded: significantly stimulates
PI 3-kinase [5]
  muscular PI 3-kinase activity: the same effect as insulin with the same intensity; also recorded: significantly stimulates
PI 3-kinase [6]
  basal activity of PI 3-kinase of the liver: is increased
[7]
  PI 3-kinase activity associated with the insulin receptor: the only one increased
[8]
  phosphatase activity associated with IRS-1: significantly inhibits
Water solubility
  solubility in water: hydrosoluble

## insulin [reference compound]
PI 3-kinase [1]
  hepatic PI 3-kinase activity: significantly stimulate
PI 3-kinase [2]
  PI 3-kinase activity of muscle: clearly stimulates
PI 3-kinase [4]
  hepatic PI 3-kinase activity: activates
PI 3-kinase [5]
  muscular PI 3-kinase activity: activates
